Legend:
[1] = target: T1, beta-amyloid 42 (Aβ42) (Homo sapiens, UniProt P05067); test: Inhibitory effect on the formation of beta-amyloid fibrils in vitro (ThT fluorescence assay); assay type: biochemical; details: for inhibition at 10 µM: 10 μM compound, Aβ42 25 μM, read-out: % Inhibition (10 μM); for IC50: In vitro ThT analysis (Aβ42: 25 μM); for % inhibition against the beta-amyloid 42 formation compared with curcumin: Tables 1 to 6, relative to curcumin
T1 construct: Beta-amyloid 42 (Aβ42) was dissolved in dimethylsulfoxide (DMSO)
T1 sequence (P05067 672-713 limits assumed): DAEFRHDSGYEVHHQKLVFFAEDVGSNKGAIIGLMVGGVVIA

[2] = target: hERG potassium ion channel (Homo sapiens, UniProt Q12809); test: Inhibitory effect on hERG potassium ion channel (whole-cell patch clamp, HEK-hERG cells); assay type: cell-based; details: for IC50: whole-cell patch clamp, room temperature, mean ± standard error, read-out: Inhibitory efficacy (IC50)
Sequence of hERG potassium ion channel (Q12809 whole entry): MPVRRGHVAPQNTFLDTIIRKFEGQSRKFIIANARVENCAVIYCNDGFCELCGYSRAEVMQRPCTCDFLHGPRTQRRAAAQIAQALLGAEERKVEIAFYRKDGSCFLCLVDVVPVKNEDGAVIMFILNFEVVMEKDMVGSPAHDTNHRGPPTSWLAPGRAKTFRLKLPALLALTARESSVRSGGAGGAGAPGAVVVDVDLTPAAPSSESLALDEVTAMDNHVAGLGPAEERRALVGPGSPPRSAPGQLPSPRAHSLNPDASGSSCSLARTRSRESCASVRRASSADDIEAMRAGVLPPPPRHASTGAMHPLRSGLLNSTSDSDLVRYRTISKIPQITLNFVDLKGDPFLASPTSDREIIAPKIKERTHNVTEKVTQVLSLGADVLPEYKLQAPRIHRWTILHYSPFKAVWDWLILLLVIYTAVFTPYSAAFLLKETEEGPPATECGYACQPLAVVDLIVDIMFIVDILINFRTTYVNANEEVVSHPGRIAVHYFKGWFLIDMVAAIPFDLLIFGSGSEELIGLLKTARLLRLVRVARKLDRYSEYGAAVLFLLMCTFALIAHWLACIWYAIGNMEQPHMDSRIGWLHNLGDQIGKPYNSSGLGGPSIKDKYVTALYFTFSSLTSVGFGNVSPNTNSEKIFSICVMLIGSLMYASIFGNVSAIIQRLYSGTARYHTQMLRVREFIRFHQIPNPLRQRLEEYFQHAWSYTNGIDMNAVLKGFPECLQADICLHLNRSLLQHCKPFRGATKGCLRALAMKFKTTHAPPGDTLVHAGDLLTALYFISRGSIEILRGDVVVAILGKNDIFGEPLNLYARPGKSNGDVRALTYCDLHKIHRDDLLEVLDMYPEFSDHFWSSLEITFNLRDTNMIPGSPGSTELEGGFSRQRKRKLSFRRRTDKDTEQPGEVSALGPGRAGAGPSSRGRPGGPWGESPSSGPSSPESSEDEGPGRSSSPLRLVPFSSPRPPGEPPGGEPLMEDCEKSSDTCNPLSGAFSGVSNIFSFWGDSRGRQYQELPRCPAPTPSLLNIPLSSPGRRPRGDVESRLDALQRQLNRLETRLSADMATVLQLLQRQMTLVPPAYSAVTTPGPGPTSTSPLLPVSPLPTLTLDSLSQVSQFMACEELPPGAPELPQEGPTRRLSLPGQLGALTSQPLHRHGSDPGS
Experimental: 1) Model Cell Line and Culture
A HEK-hERG cell line (lonGate Biosciences, Frankfurt, Germany Co.), which expresses hERG stably, was cultured in a DMEM (Dulbecco's Modified Eagle's Medium, Sigma Co., St. Louis, Mo., USA) supplemented with 10% fetal bovine serum (FBS, Cambrex, Walkersville, Md., USA) and 0.5 mg/mL zeocin (Invitrogen, Carlsbad, Calif., USA). The cell line was subcultured 5 days after culture when 80% confluency was reached.
2) Preparation of Test Solution and Test Drug
A solution within an electrode used to measure the potassium ion current is composed of 115 mM K-aspartate, 20 mM KCl, 10 mM EGTA, 10 mM HEPES, 2.5 mM tris-phosphocreatine, 0.1 mM Na2GTP and 5 mM MgCl2 (pH 7.2, 290 mOsm/Kg H2O). A solution for an extracellular perfusate is composed of 135 mM NaCl, 5 mM KCl, 1 mM MgCl2, 2 mM CaCl2, 10 mM glucose, and 10 mM HEPES (pH 7.2, 300 mOsm/Kg H2O).
Test drug solutions were prepared by respectively diluting the inventive compounds with extracellular perfusate to a desired concentration. The prepared test drug solution was placed in a 7-array polyethylene tube connected into a capillary column for gas chromatography and was dropped from the tip of the column at a height of 100 μm or less to the HEK-hERG cell line.
3) Measurement of Ion Current
Potassium ion current was measured using EPC10 (Instrutech Co., NY, USA) patch clamp amplifier in accordance with the conventional whole-cell patch clamp method. Electrode used in the measurement was a borosilicate glass capillary (external diameter: 1.65 mm, inside diameter: 1.2 mm, Corning 7052, Gamer Glass Co., Claremont, Calif., USA) prepared by using P-97 Flaming-Brown micropipette puller (Sutter Instrument Co.). The electrode was coated with Sylgard 184 (Dow Corning Co., Midland, Mich., USA) and trimmed with microforge (Narishige Co., Tokyo, Japan). […] A culture dish containing HEK-hERG cells was placed in an inverted microscope (Nikon Co.) and extracellular perfusate containing the inventive compound was perfused at a rate of 1-2 mL/min. The membrane capacitance and series resistance of cell membrane were calibrated by 80% or more and potassium ion current was measured at a sampling rate of 2 kHz and a low-pass filter of 2 kHz (−3 dB; 8-pole Bassel filter). The test is conducted at room temperature (21-24° C.).
4) Data analysis and Statistics
The results were analyzed using Pulse/Pulsefit (v9.0, HEKA Elcktronik, Lambrecht, Germany) and Igor macro. The results were given as meant standard error.

SMILES	inhibition at 10 µM ([1]; experiment of Table 7) [%]	IC50 ([1]; experiment of Table 1) [µM]	IC50 ([1]; experiment of Table 7) [µM]	% inhibition against the beta-amyloid 42 formation compared with curcumin [1]	inhibitory efficacy on hERG potassium ion channel (in words) [2]	IC50 [2] [µM]
CNc1ccc(C=Cc2cc3cc(OC)ccc3o2)cc1 [Compound 17, 5-methoxy-2-(4-methylaminostyryl)benzofuran]	74.6	0.078	0.725	superior % inhibition	insignificant inhibitory efficacy	47.9 ± 5.26
COc1ccc2cc(C=Cc3ccc(N(C)C)cc3)oc2c1 [Compound 9, 6-methoxy-2-(4-dimethylaminostyryl)benzofuran]	78.7	0.07	0.972	superior % inhibition	insignificant inhibitory efficacy	52.1 ± 3.68
